Reference: PubChem BioAssay (NCI)
Values joined by “and” are separate entries in the source; they are usually repeats but may differ in a detail not shown here. Identical values can stand only once.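 48-hour exposure; five concentrations; linearly interpolated endpoints. Abbreviation: GI50, concentration required for 50% inhibition of growth. Definition used: TGI = concentration required for complete inhibition of growth.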

Legend:
Assay in all cases: inhibition of tumour cell growth, NCI panel, 48 h
[1] = tested on: 786-0 renal
[2] = tested on: UO-31 renal
[3] = tested on: MDA-MB-435
[4] = tested on: T-47D breast
[5] = tested on: DU-145 prostate
[6] = tested on: MDA-N
[7] = tested on: HCT-15 colon
[8] = tested on: SK-MEL-5 melanoma
[9] = tested on: A549 NSCLC
[10] = tested on: SK-OV-3 ovarian
[11] = tested on: MALME-3M melanoma
[12] = tested on: RXF 393 renal
[13] = tested on: OVCAR-8 ovarian
[14] = tested on: NCI-H226 lung
[15] = tested on: NCI-H522 lung
[16] = tested on: HOP-92 NSCLC
[17] = tested on: PC-3 prostate

SMILES	TGI [1] [µM]	TGI [2] [µM]	TGI [3] [µM]	TGI [4] [µM]	TGI [5] [µM]	TGI [6]	TGI [7] [µM]	TGI [8] [µM]	TGI [9] [µM]	TGI [10] [µM]	TGI [11] [µM]	TGI [12] [µM]	TGI [13] [µM]	TGI [14] [µM]	TGI [15] [µM]	TGI [16] [µM]	TGI [17] [µM]	GI50 [3]	GI50 [6]	GI50 [16]
COC(=O)c1ccc(/C=N/c2cc(C)nn2-c2ccccc2)cc1	> 100	> 100	96.6	58	> 100	> 100 µM	> 100	83.2	> 100	> 100	> 100	> 100	> 100	> 100	> 100	> 100	> 100			
O=c1[nH]ncc2[nH]c3c(c12)CCCc1ccccc1-3	> 100	> 100	82.9	> 100	> 100	98.8 µM	> 100	> 100	> 100	> 100	> 100	41.9	> 100	> 100	> 100	> 100	> 100			
COc1ccc(-c2c(N)n(-c3cc(OC)cc(OC)c3)c(=O)c3cc([N+](=O)[O-])ccc23)cc1	> 100	> 100	> 100	> 100	> 100	> 100 µM	> 100	> 100	> 100	> 100	> 100	> 100	> 100	> 100	> 100	34.1	> 100			
COC(=O)c1c(C)cccc1C1CN=NC12Cc1c(C)cccc1C2=O (stereo not given)	> 100	> 100	> 100	> 100	> 100	> 100 µM	> 100	> 100	> 100	> 100	> 100	> 100	> 100	> 100	91.7	> 100	> 100			
Cc1occc1C(=S)Nc1ccc(Cl)c(C(=O)OCC2CC2)c1	> 100	> 100	> 100	> 100	> 100	> 100 µM	> 100	> 100	> 100	> 100	> 100		> 100	> 100	> 100	> 100	> 100			
CN(C)c1ncc(-c2c[nH]c3ccccc23)nc1-c1c[nH]c2ccccc12	4.07	13.3	12.1	19.9	20.9	4.54 µM	16.4	15.9	19.4	20.4		4.11	23			8.33	13			
COC(=O)c1ccccc1C1CN=NC12Cc1c(C)c3c(c(C)c1C2=O)CCC3 (stereo not given)	> 100	> 100	> 100	> 100	> 100	> 100 µM	> 100	> 100	> 100	> 100	> 100	> 100	> 100	> 100	> 100	> 100	> 100			
N#CC1(C#N)C(c2ccccc2)NC23CCCCC2C1(C#N)C(=O)N3 (stereo not given)	> 100	> 100	> 100	> 100	> 100	> 100 µM	> 100		> 100	> 100	> 100	> 100	> 100	> 100	> 100	> 100	> 100			
CC1=CC(=O)c2cccc(O)c2C1=O	3.09	3.28	3.28	3.72	20.6	3.34 µM	3.04	3.29	34.7	27.4	2.98	3.36	15.4	14.4	5.42	3.29	5.7			
CC1(C)C2CCC1(C)C(NC(=O)CCN1CCOCC1)C2 (stereo not given)	> 100	> 100	> 100	> 100	> 100	> 100 µM		> 100	> 100	> 100	> 100	> 100	> 100	> 100	> 100	> 100	> 100			
CC(C)Nc1n[nH]c(=O)n1C(C)C	> 100	> 100	> 100	> 100	> 100	> 100 µM	> 100	> 100	> 100	> 100			> 100	> 100		> 100	> 100			
O=C(C1=CCC2(CC1)OCCO2)N(Cc1ccccc1)c1ccccc1I	43	33.3	50.7	59.7	63.6	96.4 µM	57.2	30.1	> 100	88.2		77.6	30.1	34.8		43.2	59.9			
Cc1ccc(-c2n[nH]c(=O)n2N)cc1	> 100	> 100	> 100	> 100	> 100	> 100 µM	> 100	> 100	> 100	> 100	> 100		> 100	> 100	> 100	> 100	> 100			
Cn1cc(C=C(C#N)C#N)c(=O)n(C)c1=O	> 100	> 100	> 100	> 100	> 100	> 100 µM	> 100	> 100	> 100	> 100		> 100	> 100	> 100	> 100	> 100	> 100			
S=c1scc(-c2ccc(Cl)cc2)n1OC1CCCC1	> 100	> 100	79.3	> 100	> 100	> 100 µM	> 100	24.4	> 100	> 100	> 100	> 100	> 100		54.2	> 100	> 100			
O=C(CN1CCOCC1)NC1=Nc2ncccc2C(=O)NN1	> 10	> 10	> 10	> 10	> 10	> 10 µM	> 10	> 10	> 10	> 10	> 10	> 10	> 10	> 10		> 10	> 10			
COC(=O)C1=C(C(=O)OC)C2(/N=C(\Nc3ccccc3)c3ccccc3)N(c3ccc(OC)cc3)CC(c3ccccc3)N2O1 (stereo not given)	> 100	> 100	> 100	> 100	> 100	> 100 µM	> 100	> 100	> 100	> 100	> 100	> 100	> 100		> 100	> 100	> 100			
O=C(/C=C/c1ccc(O)c(O)c1)Oc1ccccc1	48.1	30.5	> 74.2	65.2	43.8	> 81 µM	36.2	33	59	> 100		40.1	38.2	> 100	1.95	47.6	> 76.9			
O=C1C=CC(=O)c2c(O)c(Nc3ccc(OC(F)(F)F)cc3)c(Cl)c(O)c21	1.26	5.58	2.17	0.972	1.37	5.2 µM	1.44	5.15	11.7	3.19	2.47	1.39	8.25	3.44	2.87		9.62			
c1csc(-c2cc(-c3ccsc3)c(-c3cccs3)s2)c1	> 100	> 100	> 100	> 100	> 100	> 100 µM	> 100	> 100	> 100		> 100	> 100	> 100	> 100	> 100	> 100	> 100			
O=c1oc2ccccc2c(O)c1C(c1ccc([N+](=O)[O-])cc1)c1c(O)c2ccccc2oc1=O	> 100	> 100	> 100	> 100	> 100	> 100 µM	> 100	> 100			> 100		> 100	> 100	> 100	> 100	> 100			
CN(C)CCCNC(=O)c1cc(NC(=O)CCCn2c3ccccc3c3ccccc32)cn1C	> 100	> 100	> 100	75.2	> 100	> 100 µM	> 100	> 100	> 100	> 100	61.7	> 100	> 100	> 100		9.32	> 100			
CCOC(=O)c1c2ccccc2n2c(=O)n(C)nnc12	> 100	> 100	> 100	> 100	> 100	> 100 µM	> 100	> 100	> 100	> 100	> 100	99.1	> 100	> 100		> 100	> 100			
O=C1CC(CC(O)C(O)CO)CC(=O)N1 (stereo not given)	> 100	> 100	> 100	> 100	> 100	> 100 µM	> 100	> 100	> 100		> 100		> 100	> 100	> 100	> 100	> 100			
CCOC(=O)C1C(=O)CC(C)(O)C(C(=O)OCC)C1c1ccc(O)c(OC)c1 (stereo not given)	> 100	> 100	> 100	> 100	> 100	> 100 µM	> 100	> 100	> 100		> 100	> 100	> 100	> 100	> 100	> 100	> 100			
O=C(Nc1ccccc1)N1CC(CN2CCN(c3ccccc3)CC2)OC1=O (stereo not given)	> 100	> 100	> 100	> 100	> 100	> 100 µM	> 100	> 100	> 100	> 100	> 100	> 100		> 100	> 100	> 100	> 100			
CC(=O)OCC1OC(Sc2nc(-c3ccc(C)cc3)c(C#N)c(=O)n2C2OC(COC(C)=O)C(OC(C)=O)C(OC(C)=O)C2OC(C)=O)C(OC(C)=O)C(OC(C)=O)C1OC(C)=O (stereo not given)	> 100	> 100	> 100	> 100	> 100	> 100 µM and 64.6 µM	> 100	> 100	> 100	> 100		> 100	> 100	> 100	> 100	> 100	> 100	> 100 µM and 34.7 µM	> 100 µM and 10.1 µM	> 100 µM and 41.7 µM
CCOC(=O)c1c(SCC#N)n(-c2ccccc2)c(=S)n(-c2ccccc2)c1=O	> 100	> 100	> 100	> 100	> 100	> 100 µM	> 100	> 100	> 100	> 100	> 100		> 100	> 100	> 100	93.3	> 100			
N#C/C(=C\N1CCNC1=S)C(=O)c1ccc2ccccc2c1	> 100	> 100	> 100	> 100	> 100	> 100 µM	> 100	> 100	> 100	> 100		> 100	> 100	> 100	> 100	> 100	> 100			
